{"source": "patent US20250215010A1", "about": "“DIAZABICYCLOOCTANE DERIVATIVES USEFUL AS MATRIX METALLOPROTEINASE INHIBITORS” (VASA THERAPEUTICS SPOLKA Z OGRANICZONA ODPOWIEDZIALNOSCIA, priority 2022, published 2025)", "format_in_all_cases": "biochemical", "key": {"MMP1": {"target": "T1, MMP1 (Homo sapiens, UniProt P03956)", "T1 sequence (P03956 100-269 limits assumed)": "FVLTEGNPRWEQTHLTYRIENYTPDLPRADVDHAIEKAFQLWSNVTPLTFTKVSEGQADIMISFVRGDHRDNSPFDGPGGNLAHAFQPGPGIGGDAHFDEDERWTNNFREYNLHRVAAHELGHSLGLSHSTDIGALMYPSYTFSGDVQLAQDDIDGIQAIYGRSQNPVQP", "assay": "MMP-1 colorimetric inhibition assay (Enzo kit BML-AK404)", "details": "thiopeptide substrate, absorbance 415 nm; read-out: MMP 1 IC50 class", "outline": "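Colorimetric kit run per manufacturer protocol. MMP-1 cleaves a thiopeptide substrate (Ac-PLG-[2-mercapto-4-methylpentanoyl]-LG-OC2H5); released thiol reacts with DTNB, monitored at 415 nm. IC50 (nM) from inhibition curves of normalized values.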"}, "MMP2": {"target": "T2, MMP2 (Homo sapiens, UniProt P08253)", "T2 sequence (P08253 110-660)": "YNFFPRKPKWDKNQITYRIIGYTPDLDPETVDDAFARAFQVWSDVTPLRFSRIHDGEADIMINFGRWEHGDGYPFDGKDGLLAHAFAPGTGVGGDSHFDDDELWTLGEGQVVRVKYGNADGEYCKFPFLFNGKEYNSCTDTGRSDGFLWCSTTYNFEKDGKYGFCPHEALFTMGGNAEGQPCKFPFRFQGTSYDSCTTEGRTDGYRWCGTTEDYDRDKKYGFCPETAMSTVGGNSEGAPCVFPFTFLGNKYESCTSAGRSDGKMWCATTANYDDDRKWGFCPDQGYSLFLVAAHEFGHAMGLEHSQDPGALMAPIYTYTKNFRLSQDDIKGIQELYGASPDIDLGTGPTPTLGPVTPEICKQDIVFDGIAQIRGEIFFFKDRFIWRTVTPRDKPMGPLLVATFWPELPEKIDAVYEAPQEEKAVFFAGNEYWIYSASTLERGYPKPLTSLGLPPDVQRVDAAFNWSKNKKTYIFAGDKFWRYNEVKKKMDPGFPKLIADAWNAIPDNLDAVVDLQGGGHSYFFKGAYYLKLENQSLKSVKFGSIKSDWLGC", "assay": "MMP-2 colorimetric inhibition assay (Enzo kit BML-AK408)", "details": "thiopeptide substrate, absorbance 415 nm; read-out: MMP 2 IC50 class", "outline": "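Cleavage of the thiopeptide Ac-PLG-[2-mercapto-4-methylpentanoyl]-LG-OC2H5 releases a sulfhydryl that reacts with DTNB, read at 415 nm per the kit protocol. IC50 values (nM) come from inhibition curves of normalized data.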"}, "MMP9": {"target": "MMP9 (Homo sapiens, UniProt P14780)", "sequence (P14780 94-707)": "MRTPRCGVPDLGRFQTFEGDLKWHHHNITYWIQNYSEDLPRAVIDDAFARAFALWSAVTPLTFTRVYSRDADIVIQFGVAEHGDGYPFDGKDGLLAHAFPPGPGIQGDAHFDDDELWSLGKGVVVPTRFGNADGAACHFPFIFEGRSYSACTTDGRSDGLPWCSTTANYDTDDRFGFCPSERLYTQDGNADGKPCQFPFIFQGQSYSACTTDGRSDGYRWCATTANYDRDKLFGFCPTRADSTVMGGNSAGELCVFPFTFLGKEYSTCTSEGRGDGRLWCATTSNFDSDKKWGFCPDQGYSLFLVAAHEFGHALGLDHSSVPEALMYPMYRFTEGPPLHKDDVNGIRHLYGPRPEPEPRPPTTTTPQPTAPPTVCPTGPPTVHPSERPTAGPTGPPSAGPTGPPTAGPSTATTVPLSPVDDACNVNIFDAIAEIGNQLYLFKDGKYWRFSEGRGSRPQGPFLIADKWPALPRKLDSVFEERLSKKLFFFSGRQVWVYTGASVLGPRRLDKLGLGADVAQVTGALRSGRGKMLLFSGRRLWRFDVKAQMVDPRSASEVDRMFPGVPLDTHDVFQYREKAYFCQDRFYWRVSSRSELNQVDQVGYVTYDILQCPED", "assay": "MMP-9 colorimetric inhibition assay (Enzo kit BML-AK410)", "details": "thiopeptide substrate, absorbance 415 nm; read-out: MMP 9 IC50 class", "outline": "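Colorimetric thioester-substrate assay: hydrolysis of Ac-PLG-[2-mercapto-4-methylpentanoyl]-LG-OC2H5 frees a thiol that reacts with DTNB, read at 415 nm. Run per kit protocol. IC50 (nM) taken from inhibition curves of normalized values.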"}, "MMP13": {"target": "T3, MMP13 (Homo sapiens, UniProt P45452)", "T3 construct": "purchased Enzo Life Sciences, Inc. BML-AK412", "assay": "MMP-13 colorimetric inhibition assay (Enzo kit BML-AK412)", "details": "thiopeptide substrate, absorbance 415 nm; read-out: MMP 13 IC50 class", "outline": "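Thiopeptide chromogenic substrate (Ac-PLG-[2-mercapto-4-methylpentanoyl]-LG-OC2H5); MMP-13 hydrolysis of the thioester yields a thiol that reacts with DTNB, read at 415 nm. IC50 values (nM) derived from inhibition curves of normalized data.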"}, "ADAM17 (TACE)": {"target": "ADAM17 (TACE) (Homo sapiens, UniProt P78536)", "sequence (P78536 215-477 limits assumed)": "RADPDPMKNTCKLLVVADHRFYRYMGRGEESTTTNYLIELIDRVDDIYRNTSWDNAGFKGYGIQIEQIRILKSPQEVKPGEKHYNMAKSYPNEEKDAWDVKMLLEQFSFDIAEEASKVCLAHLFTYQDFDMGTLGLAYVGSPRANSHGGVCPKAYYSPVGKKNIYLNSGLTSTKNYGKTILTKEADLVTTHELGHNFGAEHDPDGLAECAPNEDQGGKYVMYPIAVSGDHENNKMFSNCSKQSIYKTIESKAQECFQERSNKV", "assay": "TACE fluorometric inhibition assay (Enzo kit BML-AK310)", "details": "quenched fluorogenic peptide, ex/em 320/420 nm; read-out: TACE IC50 class", "outline": "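Kit-based TACE assay run per manufacturer's protocol, using quenched fluorogenic peptide Mca-PLAQAV-Dpa-RSSSR-NH2 whose cleavage raises Mca fluorescence. Signal read at ex/em 320/420 nm; IC50 (nM) derived from inhibition curves of normalized values.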"}, "ADAM10": {"target": "T4, ADAM10 (Homo sapiens, UniProt O14672)", "T4 construct": "purchased AnaSpec, Inc. AS-72226", "T4 sequence (O14672 214-748)": "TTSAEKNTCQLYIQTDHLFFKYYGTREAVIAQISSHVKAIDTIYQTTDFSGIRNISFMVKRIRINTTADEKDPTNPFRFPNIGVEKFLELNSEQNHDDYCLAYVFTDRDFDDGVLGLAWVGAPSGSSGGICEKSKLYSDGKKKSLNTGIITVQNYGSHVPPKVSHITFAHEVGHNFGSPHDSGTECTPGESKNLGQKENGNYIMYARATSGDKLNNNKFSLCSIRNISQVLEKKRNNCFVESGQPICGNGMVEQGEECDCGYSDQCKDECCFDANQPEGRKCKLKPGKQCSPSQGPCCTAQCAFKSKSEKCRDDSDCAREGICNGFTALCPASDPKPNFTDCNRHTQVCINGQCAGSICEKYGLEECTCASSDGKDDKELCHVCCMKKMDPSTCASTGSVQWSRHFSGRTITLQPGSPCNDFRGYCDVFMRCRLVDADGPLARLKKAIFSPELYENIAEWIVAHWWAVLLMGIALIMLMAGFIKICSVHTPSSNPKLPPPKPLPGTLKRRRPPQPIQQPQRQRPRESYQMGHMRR", "assay": "SensoLyte 520 ADAM10 fluorometric activity assay (AnaSpec AS-72226)", "details": "FRET peptide substrate, ex/em 495/520 nm; read-out: ADAM 10 IC50 class", "outline": "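ADAM10 activity was read by cleavage of a FRET peptide substrate (5-FAM/QXL 520), run per the kit protocol, with fluorescence at 495/520 nm. IC50 values (nM) came from inhibition curves of normalized data.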"}}, "data": [{"smiles": "CC(=O)N1[C@@H]2CC[C@H]1[C@H](C(=O)NO)N(S(=O)(=O)c1ccc(Oc3ccc(OC(F)(F)F)cc3)nc1)C2", "note": "[Example 54, (1S,2R,5R)-8-acetyl-N-hydroxy-3-((6-(4-(trifluoromethoxy)-phenoxy)pyridin-3-yl)sulfonyl)-3,8-diazabicyclo[3.2.1]-octane-2-carboxamide]", "values": [{"measurement": "IC50", "setting": "MMP1", "value": "1 to 10", "unit": "µM"}, {"measurement": "IC50", "setting": "MMP2", "value": "< 0.05", "unit": "µM"}, {"measurement": "IC50", "setting": "MMP9", "value": "< 0.05", "unit": "µM"}, {"measurement": "IC50", "setting": "MMP13", "value": "< 0.05", "unit": "µM"}, {"measurement": "IC50", "setting": "ADAM17 (TACE)", "value": "1 to 10", "unit": "µM"}, {"measurement": "IC50", "setting": "ADAM10", "value": "> 10", "unit": "µM"}]}, {"smiles": "COCCOC(=O)N1[C@@H]2CC[C@H]1[C@H](C(=O)NO)N(S(=O)(=O)c1ccc(Oc3ccc(F)cn3)cc1)C2", "note": "[Example 7, 2-methoxyethyl (1S,2R,5R)-3-((4-((5-fluoropyridin-2-yl)oxy)phenyl)-sulfonyl)-2-(hydroxycarbamoyl)-3,8-diazabicyclo-[3.2.1]octane-8-carboxylate]", "values": [{"measurement": "IC50", "setting": "MMP1", "value": "0.05 to 1", "unit": "µM"}, {"measurement": "IC50", "setting": "MMP2", "value": "< 0.05", "unit": "µM"}, {"measurement": "IC50", "setting": "MMP9", "value": "< 0.05", "unit": "µM"}, {"measurement": "IC50", "setting": "MMP13", "value": "< 0.05", "unit": "µM"}, {"measurement": "IC50", "setting": "ADAM17 (TACE)", "value": "0.05 to 1", "unit": "µM"}, {"measurement": "IC50", "setting": "ADAM10", "value": "0.05 to 1", "unit": "µM"}]}, {"smiles": "O=C(NO)[C@H]1[C@@H]2CC[C@H](CN1S(=O)(=O)c1ccc(Oc3ccc(OC(F)(F)F)cc3)nc1)N2C(=O)N1CCOCC1", "note": "[Example 70, (1S,2R,5R)-N-hydroxy-8-(morpholine-4-carbonyl)-3-((6-(4-(trifluoromethoxy)-phenoxy)pyridin-3-yl)sulfonyl)-3,8-diazabicyclo[3.2.1]-octane-2-carboxamide]", "values": [{"measurement": "IC50", "setting": "MMP1", "value": "> 10", "unit": "µM"}, {"measurement": "IC50", "setting": "MMP2", "value": "< 0.05", "unit": "µM"}, {"measurement": "IC50", "setting": "MMP9", "value": "< 0.05", "unit": "µM"}, {"measurement": "IC50", "setting": "MMP13", "value": "< 0.05", "unit": "µM"}, {"measurement": "IC50", "setting": "ADAM17 (TACE)", "value": "1 to 10", "unit": "µM"}, {"measurement": "IC50", "setting": "ADAM10", "value": "> 10", "unit": "µM"}]}]}
